{"source": "patent US20130096149A1", "about": "“HETEROARYL COMPOUNDS AND COMPOSITIONS AS PROTEIN KINASE INHIBITORS” (NOVARTIS AG, priority 2010, published 2013)", "data": [{"target": "b-Raf(V600E) (Homo sapiens, UniProt P15056, V600E)", "sequence (P15056 whole entry V600E)": "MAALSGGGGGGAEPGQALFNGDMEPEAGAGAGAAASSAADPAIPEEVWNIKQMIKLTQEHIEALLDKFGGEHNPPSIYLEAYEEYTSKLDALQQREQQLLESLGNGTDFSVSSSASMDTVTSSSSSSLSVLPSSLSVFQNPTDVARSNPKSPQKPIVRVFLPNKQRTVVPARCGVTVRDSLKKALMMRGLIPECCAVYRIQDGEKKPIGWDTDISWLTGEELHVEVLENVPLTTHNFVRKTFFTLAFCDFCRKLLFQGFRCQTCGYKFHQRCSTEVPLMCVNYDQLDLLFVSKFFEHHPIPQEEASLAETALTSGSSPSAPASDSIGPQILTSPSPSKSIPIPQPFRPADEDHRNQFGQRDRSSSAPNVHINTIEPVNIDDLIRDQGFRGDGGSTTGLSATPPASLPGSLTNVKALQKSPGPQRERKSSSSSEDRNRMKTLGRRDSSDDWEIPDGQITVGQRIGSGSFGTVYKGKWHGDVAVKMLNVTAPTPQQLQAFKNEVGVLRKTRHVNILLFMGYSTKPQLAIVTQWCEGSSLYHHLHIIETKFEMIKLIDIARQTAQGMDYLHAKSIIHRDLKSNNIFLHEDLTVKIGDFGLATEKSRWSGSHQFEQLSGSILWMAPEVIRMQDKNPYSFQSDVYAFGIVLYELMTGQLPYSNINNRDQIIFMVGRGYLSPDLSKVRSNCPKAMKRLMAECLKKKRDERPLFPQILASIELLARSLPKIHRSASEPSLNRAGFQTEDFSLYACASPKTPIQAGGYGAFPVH", "assay": "Raf/Mek Amplified Luminescence Proximity Homogeneous Assay (Alpha Screen)", "assay_type": "biochemical", "details": "b-Raf(V600E) approximately 4 pM; biotinylated Mek, kinase dead approximately 10 nM; ATP 10 μM; pre-incubation 60 minutes; reaction 3 hours at room temperature; read-out: mut-bRaf IC50", "procedure": "Raf/Mek Amplified Luminescence Proximity Homogeneous Assay\nAssay buffer: 50 mM Tris, pH 7.5, 15 mM MgCl2, 0.01% Bovine Serum Albumin (BSA), 1 mM dithiothreitol (DTT) Stop buffer: 60 mM ethylenediaminetetraacetic acid (EDTA), 0.01% Tween® 20 Bead buffer: 50 mM Tris, pH 7.5, 0.01% Tween® 20 […]\nbiotinylated Mek, kinase dead\nAlpha Screen detection kit (available from PerkinElmer™, #6760617R)\nAnti phospho-MEK1/2 (available from Cell Signaling Technology, Inc. #9121) 384 well assay plates (White Greiner® plates, #781207) […]\nb-Raf(V600E) approximately 4 pM […]\nbiotinylated Mek, Kinase dead approximately 10 nM\nPre-incubation time with compounds 60 minutes at room temperature\nReaction time 1 or 3 hours at room temperature\nRaf and biotinylated Mek, kinase dead, were combined at 2× final concentrations in assay buffer (50 mM Tris, pH 7.5, 15 mM MgCl2, 0.01% BSA and 1 mM DTT) and dispensed 10 μl per well in assay plates (Greiner white 384 well assay plates #781207) containing 0.5 μl of 40× of a raf kinase inhibitor test compound diluted in 100% DMSO. The plate was incubated for 60 minutes at room temperature.\nThe Raf kinase activity reaction was started by the addition of 10 μL per well of 2×ATP diluted in assay buffer. After 3 hours (bRaf(V600E)) or 1 hour (c-Raf), the reactions were stopped with the addition of 10 μL of stop reagent (60 mM EDTA). Phosphorylated product was measured using a rabbit anti-p-MEK (Cell Signaling, #9121) antibody and the Alpha Screen IgG (ProteinA) detection Kit (PerkinElmer #6760617R), by the addition of 30 μL to the well of a mixture of the antibody (1:2000 dilution) and detection beads (1:2000 dilution of both beads) in bead buffer (50 mM Tris, pH 7.5, 0.01% Tween20). The additions were carried out under dark conditions to protect the detection beads from light. A lid was placed on top of the plate and incubated for 1 hour at room temperature, then the luminescence was read on a PerkinElmer Envision instrument. The concentration of each compound for 50% inhibition (IC50) was calculated by non-linear regression using XL Fit data analysis software.", "units": {"IC50": "nM"}, "values": [{"smiles": "CS(=O)(=O)Nc1cc(Cl)cc(-c2nc(C3CC3)sc2-c2ccnc(N)n2)c1F", "note": "[Example 21]", "IC50": 5.8}, {"smiles": "CS(=O)(=O)Nc1cc(Cl)cc(-c2nc(C3CC3)oc2-c2ccnc(N)n2)c1F", "note": "[Example 22]", "IC50": 3.3}, {"smiles": "CNc1nccc(-c2oc(C3CC3)nc2-c2cc(Cl)cc(NS(C)(=O)=O)c2F)n1", "note": "[Example 23]", "IC50": 18}, {"smiles": "CC(C)(C)c1nc(-c2cccc(NS(C)(=O)=O)c2Cl)c(-c2ccnc(N)n2)s1", "note": "[Example 24]", "IC50": 46}, {"smiles": "COC(=O)N[C@@H](C)CNc1nccc(-c2sc(C(C)(C)C)nc2-c2cccc(NS(C)(=O)=O)c2Cl)n1", "note": "[Example 25]", "IC50": 0.32}, {"smiles": "CCCS(=O)(=O)Nc1cccc(-c2nc(C(C)(C)C)sc2-c2ccnc(N)n2)c1Cl", "note": "[Example 26]", "IC50": 0.65}, {"smiles": "CNc1nccc(-c2sc(C(C)(C)C)nc2-c2cccc(NS(C)(=O)=O)c2Cl)n1", "note": "[Example 27]", "IC50": 44}, {"smiles": "CCCS(=O)(=O)Nc1cccc(-c2nc(C(C)(C)C)sc2-c2ccnc(NC)n2)c1Cl", "note": "[Example 28]", "IC50": 1.1}, {"smiles": "CCCS(=O)(=O)Nc1cccc(-c2nc(C3CC3)sc2-c2ccnc(N)n2)c1Cl", "note": "[Example 29]", "IC50": 3.4}, {"smiles": "CCCS(=O)(=O)Nc1cccc(-c2nc(C3CC3)oc2-c2ccnc(N)n2)c1Cl", "note": "[Example 30]", "IC50": 1.2}, {"smiles": "CCCS(=O)(=O)Nc1cccc(-c2nc(C3CC3)oc2-c2ccnc(NC[C@H](C)NC(=O)OC)n2)c1Cl", "note": "[Example 31]", "IC50": 1.3}, {"smiles": "CS(=O)(=O)Nc1cccc(-c2nc(C3CC3)sc2-c2ccnc(N)n2)c1Cl", "note": "[Example 32]", "IC50": 44}, {"smiles": "COC(=O)N[C@@H](C)CNc1nccc(-c2sc(C3CC3)nc2-c2cccc(NS(C)(=O)=O)c2Cl)n1", "note": "[Example 33]", "IC50": 0.42}, {"smiles": "CCCS(=O)(=O)Nc1cccc(-c2nc(C(C)(C)C)sc2-c2ccnc(NC[C@H](C)NC(=O)OC)n2)c1F", "note": "[Example 34]", "IC50": 0.62}, {"smiles": "CCCS(=O)(=O)Nc1cccc(-c2nc(C(C)(C)C)sc2-c2ccnc(N)n2)c1F", "note": "[Example 35]", "IC50": 1.8}, {"smiles": "COC(=O)N[C@@H](C)CNc1nccc(-c2sc(C(C)(C)C)nc2-c2cccc(NS(C)(=O)=O)c2F)n1", "note": "[Example 36]", "IC50": 0.43}, {"smiles": "CCCS(=O)(=O)Nc1cccc(-c2nc(C3CC3)sc2-c2ccnc(NC)n2)c1F", "note": "[Example 37]", "IC50": 5}, {"smiles": "CCCS(=O)(=O)Nc1cccc(-c2nc(C3CC3)oc2-c2ccnc(NC[C@H](C)NC(=O)OC)n2)c1F", "note": "[Example 38]", "IC50": 0.59}, {"smiles": "CCCS(=O)(=O)Nc1cccc(-c2nc(C3CC3)oc2-c2ccnc(N)n2)c1F", "note": "[Example 39]", "IC50": 2.1}, {"smiles": "CCCS(=O)(=O)Nc1cccc(-c2nc(C3CC3)sc2-c2ccnc(NC[C@H](C)NC(=O)OC)n2)c1F", "note": "[Example 40]", "IC50": 0.12}, {"smiles": "CCCS(=O)(=O)Nc1cccc(-c2nc(C3CC3)sc2-c2ccnc(N)n2)c1F", "note": "[Example 41]", "IC50": 11}, {"smiles": "COCC(=O)N[C@@H](C)CNc1nccc(-c2oc(-c3ccc(F)cc3)nc2-c2cc(C)cc(NS(C)(=O)=O)c2Cl)n1", "note": "[Example 42]", "IC50": 3.1}, {"smiles": "CCCNc1nccc(-c2oc(C3CC3)nc2-c2cccc(NS(C)(=O)=O)c2Cl)n1", "note": "[Example 43]", "IC50": 62}, {"smiles": "COC(=O)N[C@@H](C)CNc1nccc(-c2oc(C3CC3)nc2-c2cccc(NS(C)(=O)=O)c2Cl)n1", "note": "[Example 44]", "IC50": 1.3}, {"smiles": "CS(=O)(=O)Nc1cccc(-c2nc(C3CC3)oc2-c2ccnc(N)n2)c1Cl", "note": "[Example 45]", "IC50": 17}, {"smiles": "CS(=O)(=O)Nc1cccc(-c2nc(C3CC3)oc2-c2ccnc(NCCC#N)n2)c1Cl", "note": "[Example 46]", "IC50": 0.95}, {"smiles": "CCCS(=O)(=O)Nc1cc(Cl)cc(-c2nc(C(C)(C)C)sc2-c2ccnc(N)n2)c1Cl", "note": "[Example 47]", "IC50": 0.13}, {"smiles": "CCCS(=O)(=O)Nc1cc(Cl)cc(-c2nc(C(C)(C)C)sc2-c2ccnc(NC[C@H](C)NC(=O)OC)n2)c1Cl", "note": "[Example 48]", "IC50": 0.7}, {"smiles": "COC(=O)N[C@@H](C)CNc1nccc(-c2sc(C(C)(C)C)nc2-c2cc(Cl)cc(NS(C)(=O)=O)c2Cl)n1", "note": "[Example 49]", "IC50": 0.4}, {"smiles": "CCCS(=O)(=O)Nc1cc(Cl)cc(-c2nc(C3CC3)sc2-c2ccnc(N)n2)c1Cl", "note": "[Example 50]", "IC50": 0.056}, {"smiles": "CCCS(=O)(=O)Nc1cc(Cl)cc(-c2nc(C3CC3)sc2-c2ccnc(NC)n2)c1Cl", "note": "[Example 51]", "IC50": 0.08}, {"smiles": "CCCS(=O)(=O)Nc1cc(Cl)cc(-c2nc(C3CC3)sc2-c2ccnc(NC[C@H](C)NC(=O)OC)n2)c1Cl", "note": "[Example 52]", "IC50": 0.24}, {"smiles": "CS(=O)(=O)Nc1cc(Cl)cc(-c2nc(C3CC3)sc2-c2ccnc(N)n2)c1Cl", "note": "[Example 53]", "IC50": 0.45}, {"smiles": "CNc1nccc(-c2sc(C3CC3)nc2-c2cc(Cl)cc(NS(C)(=O)=O)c2Cl)n1", "note": "[Example 54]", "IC50": 0.46}, {"smiles": "COC(=O)N[C@@H](C)CNc1nccc(-c2sc(C3CC3)nc2-c2cc(Cl)cc(NS(C)(=O)=O)c2Cl)n1", "note": "[Example 55]", "IC50": 0.28}, {"smiles": "CCCS(=O)(=O)Nc1cc(Cl)cc(-c2nc(C3CC3)oc2-c2ccnc(N)n2)c1Cl", "note": "[Example 56]", "IC50": 0.022}, {"smiles": "CCCS(=O)(=O)Nc1cc(Cl)cc(-c2nc(C3CC3)oc2-c2ccnc(NC[C@H](C)NC(=O)OC)n2)c1Cl", "note": "[Example 57]", "IC50": 0.56}, {"smiles": "CS(=O)(=O)Nc1cc(Cl)cc(-c2nc(C3CC3)oc2-c2ccnc(N)n2)c1Cl", "note": "[Example 58]", "IC50": 0.35}, {"smiles": "CNc1nccc(-c2oc(C3CC3)nc2-c2cc(Cl)cc(NS(C)(=O)=O)c2Cl)n1", "note": "[Example 59]", "IC50": 1.5}, {"smiles": "COC(=O)N[C@@H](C)CNc1nccc(-c2oc(C3CC3)nc2-c2cc(Cl)cc(NS(C)(=O)=O)c2Cl)n1", "note": "[Example 60]", "IC50": 0.46}, {"smiles": "CNc1nccc(-c2sc(C(C)(C)C)nc2-c2cc(Cl)cc(NS(C)(=O)=O)c2F)n1", "note": "[Example 61]", "IC50": 0.65}, {"smiles": "CCCS(=O)(=O)Nc1cc(Cl)cc(-c2nc(C3CC3)oc2-c2ccnc(NC)n2)c1F", "note": "[Example 62]", "IC50": 0.28}, {"smiles": "CCCS(=O)(=O)Nc1cc(Cl)cc(-c2nc(C3CC3)oc2-c2ccnc(N)n2)c1F", "note": "[Example 63]", "IC50": 0.044}, {"smiles": "CCCS(=O)(=O)Nc1cc(Cl)cc(-c2nc(C3CC3)oc2-c2ccnc(NC[C@H](C)NC(=O)OC)n2)c1F", "note": "[Example 64]", "IC50": 0.28}, {"smiles": "CCCS(=O)(=O)Nc1cc(Cl)cc(-c2nc(C3CC3)sc2-c2ccnc(NC[C@H](C)NC(=O)OC)n2)c1F", "note": "[Example 65]", "IC50": 0.09}, {"smiles": "CCCS(=O)(=O)Nc1cc(Cl)cc(-c2nc(C3CC3)sc2-c2ccnc(N)n2)c1F", "note": "[Example 66]", "IC50": 0.058}]}]}
